Tested on: not listed separately
Assay: Plasma protein binding in human serum by equilibrium dialysis method

| Compound | fraction unbound |
| --- | --- |
| O=C(O)c1cn(Cc2ccc(-c3cn[nH]c3)cc2F)c2cccc(F)c2c1=O | 0.044 |
| O=C(O)c1cn(Cc2ccc(-c3cccc(CO)n3)cc2)c2c(F)cccc2c1=O | 0.058 |
| O=C(O)c1cn(Cc2ccc(-c3cccnc3)cc2)c2cccc(F)c2c1=O | 0.055 |

Molecular target: T1, Muscarinic acetylcholine receptor M1 (Homo sapiens) (UniProt P11229)
T1 sequence (whole entry): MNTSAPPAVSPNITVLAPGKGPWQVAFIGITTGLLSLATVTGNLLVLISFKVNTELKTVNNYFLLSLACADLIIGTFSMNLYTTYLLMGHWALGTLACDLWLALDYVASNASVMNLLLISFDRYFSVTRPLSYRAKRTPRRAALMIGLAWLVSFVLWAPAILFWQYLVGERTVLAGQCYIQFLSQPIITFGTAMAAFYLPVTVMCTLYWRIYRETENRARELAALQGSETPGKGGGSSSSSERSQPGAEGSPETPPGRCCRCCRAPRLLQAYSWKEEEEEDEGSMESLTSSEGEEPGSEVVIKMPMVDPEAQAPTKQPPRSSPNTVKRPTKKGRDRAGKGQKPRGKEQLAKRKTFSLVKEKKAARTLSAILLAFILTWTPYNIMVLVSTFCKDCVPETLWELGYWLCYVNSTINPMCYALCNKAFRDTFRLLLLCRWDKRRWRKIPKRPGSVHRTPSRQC
Assay: Allosteric modulation of human muscarinic M1 receptor expressed in CHO cells assessed as effect on acetylcholine-induced calcium mobilization by FLIPR assay
Type: functional, cell-based

| Compound | IP |
| --- | --- |
| O=C(O)c1cn(Cc2ccccc2C(F)(F)F)c2ccccc2c1=O | 4300 nM |
| CS(=O)(=O)c1ccc(Cn2cc(C(=O)O)c(=O)c3c(F)ccc(F)c32)cc1 | 16000 nM |
| O=C(O)c1cn(C2(c3ccccc3)CC2)c2c(F)cccc2c1=O | 22000 nM |
| O=C(O)c1cn(Cc2ccc(-c3cccc4cccnc34)cc2)c2cccc(F)c2c1=O | 190 nM |
| O=C(O)c1cn(Cc2ccc(OC(F)(F)F)cc2)c2c(F)ccc(F)c2c1=O | 1300 nM |
| O=C(O)c1cn(C2(c3ccccc3)CC2)c2ccccc2c1=O | 13000 nM |
| COc1ncc(-c2ccc(Cn3cc(C(=O)O)c(=O)c4ccccc43)c(F)c2)cn1 | 510 nM |
| COc1ccc(Cn2cc(C(=O)O)c(=O)c3cccc(F)c32)cc1 | 1100 nM |
| O=C(O)c1cn(Cc2ccc(-c3ccccc3)cc2)c2c(F)ccc(F)c2c1=O | 270 nM |
| O=C(O)c1cn(Cc2ccccc2)c2c(F)ccc(F)c2c1=O | 3000 nM |
| O=C(O)c1cn(CCc2ccccc2)c2c(F)cccc2c1=O | 24000 nM |
| COc1cccc(Cn2cc(C(=O)O)c(=O)c3cccc(F)c32)c1 | 2700 nM |
| O=C(O)c1cn(CCc2ccccc2)c2ccccc2c1=O | > 100000 nM |
| O=C(O)c1cn(Cc2ccc(-c3cn[nH]c3)cc2F)c2cccc(F)c2c1=O | 41 nM |
| CS(=O)(=O)c1ccc(Cn2cc(C(=O)O)c(=O)c3cccc(F)c32)cc1 | 13000 nM |
| O=C(O)c1cn(Cc2ccc(-c3cncnc3)cc2)c2c(F)cccc2c1=O | 830 nM |
| O=C(O)c1cn(Cc2ccc(OC(F)(F)F)cc2)c2ccccc2c1=O | 1800 nM |
| O=C(O)c1cn(Cc2cccc(OC(F)(F)F)c2)c2c(F)ccc(F)c2c1=O | 3200 nM |
| O=C(O)c1cn(Cc2ccccc2C(F)(F)F)c2c(F)cccc2c1=O | 6900 nM |
| O=C(O)c1cn(Cc2ccc(-c3ccccc3)cc2F)c2ccccc2c1=O | 50 nM |
| O=C(O)c1cn(Cc2ccc(-c3cccc4[nH]ccc34)cc2)c2c(F)cccc2c1=O | 76 nM |
| O=C(O)c1cn(Cc2ccc(-c3ccccc3)cc2)c2c(F)cccc2c1=O | 380 nM |
| O=C(O)c1cn(Cc2c(F)cccc2F)c2c(F)cccc2c1=O | 1000 nM |
| COc1ccc(-c2ccc(Cn3cc(C(=O)O)c(=O)c4cccc(F)c43)cc2)cn1 | 63 nM |

| Compound | IP |
| --- | --- |
| CNc1ccc(-c2ccc(Cn3cc(C(=O)O)c(=O)c4cccc(F)c43)cc2)cn1 | 48 nM |
| O=C(O)c1cn(Cc2ccc(C(F)(F)F)cc2)c2cccc(F)c2c1=O | 1500 nM |
| N#Cc1ccccc1-c1ccc(Cn2cc(C(=O)O)c(=O)c3c(F)cccc32)cc1 | 400 nM |
| O=C(O)c1cn(Cc2ccc(C(F)(F)F)cc2)c2c(F)cccc2c1=O | 980 nM |
| CN(C)c1cc(-c2ccc(Cn3cc(C(=O)O)c(=O)c4cccc(F)c43)cc2)ccn1 | 45 nM |
| Nc1ccc(-c2ccc(Cn3cc(C(=O)O)c(=O)c4cccc(F)c43)cc2)cn1 | 130 nM |
| CS(=O)(=O)c1ccc(Cn2cc(C(=O)O)c(=O)c3ccccc32)cc1 | 18000 nM |
| CN1CCN(c2ccc(-c3ccc(Cn4cc(C(=O)O)c(=O)c5cccc(F)c54)cc3)cn2)CC1 | 51 nM |
| O=C(O)c1cn(Cc2ccc(Br)cc2F)c2c(F)cccc2c1=O | 1200 nM |
| CN(C)c1cccc(-c2ccc(Cn3cc(C(=O)O)c(=O)c4cccc(F)c43)cc2)c1 | 94 nM |
| O=C(O)c1cn(Cc2ccc(-c3ccncc3)cc2)c2c(F)cccc2c1=O | 100 nM |
| COc1ccc(Cn2cc(C(=O)O)c(=O)c3c(F)cccc32)cc1 | 2000 nM |
| O=C(O)c1cn(Cc2cccc(C(F)(F)F)c2)c2ccccc2c1=O | 7200 nM |
| O=C(O)c1cn(Cc2ccc(C(F)(F)F)cc2)c2c(F)ccc(F)c2c1=O | 760 nM |
| COc1cccc(Cn2cc(C(=O)O)c(=O)c3c(F)cccc32)c1 | 2100 nM |
| O=C(O)c1cn(Cc2ccccc2C(F)(F)F)c2c(F)ccc(F)c2c1=O | 2300 nM |
| O=C(O)c1cn(Cc2ccc(-c3cccc(CO)n3)cc2)c2c(F)cccc2c1=O | 250 nM |
| O=C(O)c1cn(Cc2ccc(Br)cc2F)c2cccc(F)c2c1=O | 1100 nM |
| O=C(O)c1cn(Cc2c(F)cccc2F)c2cccc(F)c2c1=O | 1300 nM |
| O=C(O)c1cn(Cc2ccc(C3CC3)cc2)c2c(F)cccc2c1=O | 1200 nM |
| O=C(O)c1cn(Cc2cccc(OC(F)(F)F)c2)c2ccccc2c1=O | 4100 nM |
| O=C(O)c1cn(Cc2cccc(C(F)(F)F)c2)c2c(F)ccc(F)c2c1=O | 1600 nM |
| O=C(O)c1cn(Cc2ccc(OC(F)(F)F)cc2)c2c(F)cccc2c1=O | 2100 nM |
| O=C(O)c1cn(Cc2ccc(C3CC3)cc2)c2cccc(F)c2c1=O | 830 nM |

| Compound | IP |
| --- | --- |
| O=C(O)c1cn(Cc2ccc(-c3cn[nH]c3)cc2F)c2ccccc2c1=O | 56 nM |
| COc1cccc(Cn2cc(C(=O)O)c(=O)c3ccccc32)c1 | 2800 nM |
| Nc1cccc(-c2ccc(Cn3cc(C(=O)O)c(=O)c4cccc(F)c43)cc2)c1 | 210 nM |
| O=C(O)c1cn(Cc2cccc(C(F)(F)F)c2)c2c(F)cccc2c1=O | 2700 nM |
| O=C(NC1CC1)c1ccc(-c2ccc(Cn3cc(C(=O)O)c(=O)c4cccc(F)c43)cc2)cc1 | 110 nM |
| NC(=O)c1cccc(Cn2cc(C(=O)O)c(=O)c3ccccc32)c1 | 4300 nM |
| CN(C)Cc1cccc(-c2ccc(Cn3cc(C(=O)O)c(=O)c4cccc(F)c43)cc2)c1 | 220 nM |
| O=C(O)c1cn(Cc2c(F)cccc2F)c2c(F)ccc(F)c2c1=O | 610 nM |
| N#Cc1ccccc1-c1ccc(Cn2cc(C(=O)O)c(=O)c3cccc(F)c32)cc1 | 540 nM |
| O=C(O)c1cn(Cc2ccc(-c3cccnc3)cc2)c2cccc(F)c2c1=O | 61 nM |
| O=C(O)c1cn(Cc2cccc(OC(F)(F)F)c2)c2cccc(F)c2c1=O | 5900 nM |
| NC(=O)c1cccc(Cn2cc(C(=O)O)c(=O)c3cccc(F)c32)c1 | 3400 nM |
| O=C(O)c1cn(Cc2ccc(-c3ccccc3)cc2)c2ccccc2c1=O | 210 nM |
| O=C(O)c1cn(Cc2ccc(OC(F)(F)F)cc2)c2cccc(F)c2c1=O | 2800 nM |
| COc1cccc(Cn2cc(C(=O)O)c(=O)c3c(F)ccc(F)c32)c1 | 4200 nM |
| O=C(NCCO)c1cccc(-c2ccc(Cn3cc(C(=O)O)c(=O)c4cccc(F)c43)cc2)c1 | 99 nM |
| Cn1cc(-c2ccc(Cn3cc(C(=O)O)c(=O)c4ccccc43)c(F)c2)cn1 | 37 nM |
| O=C(O)c1cn(Cc2ccc(Br)cc2F)c2c(F)ccc(F)c2c1=O | 860 nM |
| O=C(O)c1cn(Cc2ccc(-c3ccccc3)cc2)c2cccc(F)c2c1=O | 84 nM |
| O=C(O)c1cn(Cc2cccc(OC(F)(F)F)c2)c2c(F)cccc2c1=O | 3600 nM |
| O=C(O)c1cn(Cc2ccccc2)c2c(F)cccc2c1=O | 4000 nM |
| O=C(O)c1cn(Cc2ccccc2)c2ccccc2c1=O | 1700 nM |
| O=C(O)c1cn(Cc2ccc(-c3ccccc3)cc2Cl)c2ccccc2c1=O | 120 nM |

Tested on: not listed separately
Assay: Plasma protein binding in rat serum by equilibrium dialysis method

| Compound | fraction unbound |
| --- | --- |
| O=C(O)c1cn(Cc2ccc(-c3cccc4cccnc34)cc2)c2cccc(F)c2c1=O | 0.015 |
| O=C(O)c1cn(Cc2ccc(-c3cn[nH]c3)cc2F)c2cccc(F)c2c1=O | 0.02 |
| O=C(O)c1cn(Cc2ccc(-c3cccc(CO)n3)cc2)c2c(F)cccc2c1=O | 0.022 |
| O=C(O)c1cn(Cc2ccc(-c3cccnc3)cc2)c2cccc(F)c2c1=O | 0.051 |

Tested on: not listed separately
Assay: Drug level in rat cerebrospinal fluid at 10 mg/kg, po after 1 hr

| Compound | concentration at 1 h |
| --- | --- |
| O=C(O)c1cn(Cc2ccc(-c3cccnc3)cc2)c2cccc(F)c2c1=O | 24 nM |
